This assay has as its system 786-O (renal cell carcinoma) cells. The experiment in a line: Cell viability (CellTiter Glo) assay, inhibition of 786-O cell proliferation. Type of assay: cell-based. Conditions: 786-O cells, 72 hours, CellTiter Glo, read-out: IC50, inhibition of 786-O cell proliferation.

Like-named read-outs stand apart in the source and are kept apart here.

Consider `N=C(OCc1nc(NCC(F)(F)F)c2c(n1)N(c1cc(F)c3c(c1)CCO3)C(=O)C21CCCC1)N1CCC[C@@H]1C(F)(F)F` [Compound E61], for which, under “Homo sapiens, 786-0”, the IC50 is less than 100 nM.
Same read-out and setting: in the case of `N=C(OCc1nc(N)c2c(n1)N(c1cnc(C3CC3)nc1)C(=O)C21CCCC1)N1CCC[C@@H]1C(F)(F)F` [Compound E63] it was less than 100 nM.
As to `CC1(C)C(=O)N(c2cc(F)c3c(c2)CCO3)c2nc(COC(=N)N3CCC[C@@H]3C(F)(F)F)nc(N)c21` [Compound E65], for the setting “Homo sapiens, 786-0”, the IC50 was less than 100 nM.
For `CC1(C)C(=O)N(c2ccc3c(c2)C2(CCO3)CC2)c2nc(COC(=N)N3CCC[C@@H]3C(F)(F)F)nc(NCC(F)(F)F)c21` [Compound E66], the IC50 is less than 100 nM.
Turning to `CNc1nc(COC(=N)N2CCC[C@@H]2C(F)(F)F)nc2c1C(C)(C)C(=O)N2c1cnc2c(C(C)C)cnn2c1` [Compound E67], the IC50 (Homo sapiens, 786-0) was less than 100 nM.
On the same count and under the same terms, the value for `CNc1nc(COC(=N)N2CCC[C@@H]2C(F)(F)F)nc2c1C(C)(C)C(=O)N2c1ccc2c(c1)CCO2` [Compound E68] was less than 100 nM; that for `CNc1nc(COC(=N)N2CCC[C@@H]2C(F)(F)F)nc2c1C(C)(C)C(=O)N2c1ccc(N2C[C@@H](C)O[C@@H](C)C2)nc1` [Compound E69] was less than 100 nM.
Consider `CC1(C)C(=O)N(c2ccc(N3CCC4(CC3)CC4)nc2)c2nc(COC(=N)N3CCC[C@@H]3C(F)(F)F)nc(N)c21` [Compound E70], for which, where the note is “Homo sapiens, 786-0”, the IC50 was less than 100 nM.
Same read-out and setting: the value for `N=C(OCc1nc(NC2CC2)c2c(n1)N(c1ccc(N3CCOCC3)cc1)C(=O)C21CCCCC1)N1CCC[C@@H]1C(F)(F)F` [Compound E71] was less than 100 nM; that for `N=C(OCc1ncc2c(n1)N(c1ccc(N3CCOCC3)cc1)C(=O)C21CCCC1)N1CCC[C@@H]1C(F)(F)F` [Compound E72] was less than 100 nM.
Turning to `N=C(OCc1nc(NC2CC2)c2c(n1)N(c1ccc(N3CCOCC3)c(F)c1)C(=O)C21CCCCC1)N1CCC[C@@H]1C(F)(F)F` [Compound E73], for the setting “Homo sapiens, 786-0”, the IC50 was less than 100 nM.
Same read-out and setting: the value for `CC1(C)C(=O)N(c2ccc(N3CCOCC3)cc2)c2nc(COC(=N)N3CCC[C@@H]3C(F)(F)F)nc(N3CC(F)(F)C3)c21` [Compound E74] was 100 to 500 nM; that for `CCN(CC)c1ncc(N2C(=O)C3(CCCC3)c3c(N)nc(COC(=N)N4CCC[C@@H]4C(F)(F)F)nc32)cn1` [Compound E75] was less than 100 nM; that for `CCN(CC)c1ncc(N2C(=O)C3(CCCC3)c3c(NC(C)C)nc(COC(=N)N4CCC[C@@H]4C(F)(F)F)nc32)cn1` [Compound E76] was 100 to 500 nM.
As to `COc1cc(N2CCOCC2)ccc1N1CC(C)(C)c2c(N)nc(COC(=N)N3CCC[C@@H]3C(F)(F)F)nc21` [Compound E77], the IC50 (Homo sapiens, 786-0) is less than 100 nM.
On the same count and under the same terms, the value for `N=C(OCc1nc(N)c2c(n1)N(c1cnc(N3CCOCC3)nc1)C(=O)C21CCCC1)N1CCC[C@@H]1C(F)(F)F` [Compound E78] was less than 100 nM.
Still for that read-out and setting: the value for `CC(C)Nc1nc(COC(=N)N2CCC[C@@H]2C(F)(F)F)nc2c1C1(CCCC1)C(=O)N2c1cnc(N2CCOCC2)nc1` [Compound E79] was 100 to 500 nM; that for `CNc1nc(COC(=N)N2CCC[C@@H]2C(F)(F)F)nc2c1C1(CCCC1)C(=O)N2c1cnc(N2CCOCC2)nc1` [Compound E80] was less than 100 nM.
With `CC(C)Nc1nc(COC(=N)N2CCC[C@@H]2C(F)(F)F)nc2c1C1(CCCC1)C(=O)N2c1cnc(N2CCC(F)(F)C2)nc1` [Compound E81], the IC50 (Homo sapiens, 786-0) is less than 100 nM.
Turning to `N=C(OCc1nc(N)c2c(n1)N(c1cnc(N3CCC(F)(F)C3)nc1)C(=O)C21CCCC1)N1CCC[C@@H]1C(F)(F)F` [Compound E82], the IC50 (Homo sapiens, 786-0) was less than 100 nM.
The same measure, in the same setting: the value for `CNc1nc(COC(=N)N2CCC[C@@H]2C(F)(F)F)nc2c1C1(CCCC1)C(=O)N2c1cnc(N2CCC(F)(F)C2)nc1` [Compound E83] was less than 100 nM.
With `N=C(OCc1nc(N)c2c(n1)N(c1cnc(N3CCC(F)(F)CC3)nc1)C(=O)C21CCCC1)N1CCC[C@@H]1C(F)(F)F` [Compound E84], for the setting “Homo sapiens, 786-0”, the IC50 was less than 100 nM.
Same read-out and setting: the value for `N=C(OCc1nc(N)c2c(n1)N(c1cnc(N3CC(F)(F)C3)nc1)C(=O)C21CCCC1)N1CCC[C@@H]1C(F)(F)F` [Compound E85] was less than 100 nM; that for `CNc1nc(COC(=N)N2CCC[C@@H]2C(F)(F)F)nc2c1C1(CCCC1)C(=O)N2c1cnc(N2CC(F)(F)C2)nc1` [Compound E86] was less than 100 nM.
As to `CC1(C)C(=O)N(c2cnc(C3CCOCC3)nc2)c2nc(COC(=N)N3CCC[C@@H]3C(F)(F)F)nc(NC3CCC3)c21` [Compound E89], the IC50 (Homo sapiens, 786-0) lay in the range of 500 to 5000 nM.
With `N=C(OCc1nc(N)c2c(n1)N(c1cnc(C(F)(F)F)nc1)C(=O)C21CCCC1)N1CCC[C@@H]1C(F)(F)F` [Compound E90], the IC50 (Homo sapiens, 786-0) was in the range of 100 to 500 nM.
In the case of `N=C(OCc1nc(NC2CCC2)c2c(n1)N(c1ccc(N3CCOCC3)cc1)C(=O)C21CCCC1)N1CCC[C@@H]1C(F)(F)F` [Compound E91], the IC50 (Homo sapiens, 786-0) was less than 100 nM.
On to `C[C@@H]1CN(c2ncc(N3C(=O)C4(CCCC4)c4c(NC5CCC5)nc(COC(=N)N5CCC[C@@H]5C(F)(F)F)nc43)cn2)C[C@H](C)O1` [Compound E92, [4′-(cyclobutylamino)-7′-{2-[(2R,6S)-2,6-dimethylmorpholin-4-yl]pyrimidin-5-yl}-6′-oxo-6′,7′-dihydrospiro[cyclopentane-1,5′-pyrrolo[2,3-d]pyrimidin]-2′-yl]methyl (2R)-2-(trifluoromethyl)pyrrolidine-1-carboximidate], for which the IC50 (Homo sapiens, 786-0) lay within 100 to 500 nM.
Same read-out and setting: the value for `CNc1nc(COC(=N)N2CCC[C@@H]2C(F)(F)F)nc2c1C1(CCCC1)C(=O)N2c1cnc(C2=CCOCC2)nc1` [Compound E95] was less than 100 nM; that for `CNc1nc(COC(=N)N2CCC[C@@H]2C(F)(F)F)nc2c1C1(CCCC1)C(=O)N2c1cnc(N2CC3CC2CO3)nc1` (stereo partly drawn) [Compound E96, (7′-(2-(2-oxa-5-azabicyclo[2.2.1]heptan-5-yl)pyrimidin-5-yl)-4′-(methylamino)-6′-oxo-6′,7′-dihydrospiro[cyclopentane-1,5′-pyrrolo[2,3-d]pyrimidin]-2′-yl)methyl (2R)-2-(trifluoromethyl)pyrrolidine-1-carbimidate] was 100 to 500 nM; that for `N=C(OCc1nc(N)c2c(n1)N(c1cnc(N3CC4CC3CO4)nc1)C(=O)C21CCCC1)N1CCC[C@@H]1C(F)(F)F` (some centres unmarked) [Compound E98] was 500 to 5000 nM.
Still for that read-out and setting: in the case of `CC1(C)CC(c2ncc(N3C(=O)C4(CCCC4)c4c(N)nc(COC(=N)N5CCOCC5C(F)(F)F)nc43)cn2)CC(C)(C)O1` (centres unmarked) [Compound E101] it was 500 to 5000 nM; in that of `CNc1nc(COC(=N)N2CCC[C@@H]2C(F)(F)F)nc2c1C1(CCCC1)C(=O)N2c1cnc(C2CC(C)(C)OC(C)(C)C2)nc1` [Compound E102], 100 to 500 nM.
Still for that read-out and setting: in the case of `C[C@@H]1CN(c2ncc(N3C(=O)C4(CCCC4)c4c(N)nc(COC(=N)N5CCOC[C@H]5C(F)(F)F)nc43)cn2)C[C@H](C)O1` [Compound E104A] it was 100 to 500 nM; in that of `C[C@@H]1CN(c2ncc(N3C(=O)C4(CCCC4)c4c(N)nc(COC(=N)N5CCOC[C@@H]5C(F)(F)F)nc43)cn2)C[C@H](C)O1` [Compound E104B], less than 100 nM.
Take `C[C@@H]1CN(c2ncc(N3C(=O)C(C)(C)c4c(N)nc(COC(=N)N5CCC[C@@H]5C(F)(F)F)nc43)cn2)C[C@H](C)O1` [Compound E105]: the IC50 (Homo sapiens, 786-0) was less than 100 nM.
In the case of `CNc1nc(COC(=N)N2CCC[C@@H]2C(F)(F)F)nc2c1C(C)(C)CN2c1ccc(N2CCOCC2)cc1OC` [Compound E106], for the setting “Homo sapiens, 786-0”, the IC50 was less than 100 nM.
Consider `CNc1nc(COC(=N)N2CCC[C@H]2C(F)(F)F)nc2c1C(C)(C)CN2c1ccc(N2CCOCC2)cc1OC` [Compound E107], for which the IC50 (Homo sapiens, 786-0) was less than 100 nM.
Regarding `CNc1nc(COC(=N)N2CCC[C@H]2C(F)(F)F)nc2c1C(C)(C)C(=O)N2c1ccc(N2CCOCC2)cc1` [Compound E108], where the note is “Homo sapiens, 786-0”, the IC50 was less than 100 nM.
Consider `CCN(CC(F)(F)F)C(=N)OCc1nc(NC)c2c(n1)N(c1ccc(N3CCOCC3)cc1)C(=O)C2(C)C` [Compound E109], for which, under “Homo sapiens, 786-0”, the IC50 is less than 100 nM.
Same read-out and setting: in the case of `N=C(OCc1nc(NC2CC2)c2c(n1)N(c1cnc(N3CCOCC3)nc1)C(=O)C21CCCC1)N1CCC[C@@H]1C(F)(F)F` [Compound E111] it was less than 100 nM.
The same measure, in the same setting: in the case of `N=C(OCc1nc(NC2CC2)c2c(n1)N(c1cnc(N3CCC(F)(F)CC3)nc1)C(=O)C21CCCC1)N1CCC[C@@H]1C(F)(F)F` [Compound E112] it was less than 100 nM; in that of `CNc1nc(COC(=N)N2CCCC2C(F)(F)F)nc2c1C(C)(C)C(=O)N2c1ccc(N2C[C@@H](C)O[C@@H](C)C2)nc1` (some centres unmarked) [Compound E113], less than 100 nM.
Still for that read-out and setting: the value for `CNc1nc(COC(=N)N2CCC[C@@H]2C(F)(F)F)nc2c1C(C)(C)C(=O)N2c1ccc(N2CCOCC2)cc1` [Compound E114] was less than 100 nM.
As for `CNc1nc(COC(=N)N2CC(F)(F)C[C@H]2C)nc2c1C(C)(C)C(=O)N2c1ccc(N2C[C@@H](C)O[C@@H](C)C2)nc1` [Compound E115], the IC50 (Homo sapiens, 786-0) lay in the range of 100 to 500 nM.
For the compound `CNc1nc(COC(=N)N2CC(F)(F)C[C@@H]2C)nc2c1C(C)(C)C(=O)N2c1ccc(N2C[C@@H](C)O[C@@H](C)C2)nc1` [Compound E116], the IC50 (Homo sapiens, 786-0) was 100 to 500 nM.
The same measure, in the same setting: the value for `CC1(C)C(=O)N(c2ccc(N3CCOCC3)cc2)c2nc(COC(=N)N3CCC[C@@H]3C(F)(F)F)nc(N)c21` [Compound E117] was less than 100 nM; that for `N=C(OCc1ncc2c(n1)N(c1cnc(N3CCC(F)(F)CC3)nc1)C(=O)C21CCCC1)N1CCC[C@@H]1C(F)(F)F` [Compound E118] was less than 100 nM.
In the case of `N=C(OCc1ncc(C2CCCO2)c(Nc2ccc(Oc3ccccc3)cc2)n1)N1CCCCC1C(F)(F)F` (centres unmarked) [Compound E119], the IC50 (Homo sapiens, 786-0) was less than 100 nM.
In the case of `CC(C)N(CC(F)(F)F)C(=N)OCc1ncc(C2=CCOCC2)c(Nc2ccc(N3CCOCC3)nc2)n1` [Compound E120], under “Homo sapiens, 786-0”, the IC50 was 500 to 5000 nM.
The same measure, in the same setting: the value for `CC1(C)CN(c2ccc(Oc3ccccc3)cc2)c2nc(COC(=N)N3CCCC34CCOCC4)ncc21` [Compound E121] was 500 to 5000 nM.
On the same count and under the same terms, in the case of `N=C(OCc1nc(N)nc(Nc2ccc(Oc3ccccc3)cc2)n1)N1CCCC12CCOCC2` [Compound E122] it was 500 to 5000 nM; in that of `CC(C)N(CC(F)(F)F)C(=N)OCc1ncc(C2CCOCC2)c(Nc2ccc(N3CCOCC3)nc2)n1` [Compound E124], more than 5000 nM.

These data come from patent US20250304571A1, “BIOLOGICALLY ACTIVE COMPOUNDS AND METHODS THEREOF” (Suzhou Keen Therapeutics Co., Ltd., priority 2022, published 2025).
